Assays:
paw edema = test: Anti-inflammatory activity (% inhibition in paw edema); assay type: in vivo; conditions: dose 40 mg/kg p.o.; albino rats
Excerpt: (§1) Solvents were dried and distilled before use. Dimethyltin(IV) dichloride di-n-butyltin(IV) dichloride, diphenyltin(IV) dichloride, trimethyltin(IV) chloride, tri-i-propyltin(IV) chloride, tri-n-butyltin(IV) chloride, triphenyltin(IV) chloride (E. Merck), di-n-octyltin(IV) oxide (Aldrich), and disodium salt of 5′-guanosine monophosphate (Na2(5′-GMP) (Sigma) were used as received. The elemental analysis, namely, melting points, carbon, hydrogen, nitrogen, and tin of the synthesized compounds was determined on the same instruments as reported earlier. Infrared and far-infrared spectra were recorded on a Perkin-Elmer 1600 series FT IR spectrophotometer in the range 4000–400 cm^−1 from KBr discs and 600–200 cm^−1 from CsI discs. ^1H and ^13C spectra were recorded on a Bruker DRX 300 (300 MHz FT NMR) spectrometer at the Central Drug Research Institute, Lucknow, India, using CD3OD as solvent and TMS as the internal standard. ^119Sn NMR spectra were recorded on a Bruker DRX 500 (500 MHz FT NMR) spectrometer at the Institute Instrumentation Centre, IIT, Roorkee, India, using DMSO-d6/CD3OD as solvent and TMS as the internal standard. ^119Sn Mössbauer spectra were recorded on Mössbauer spectrometer model MS-900 according to the procedure reported previously at the Department of Chemistry and Physics, University of The District of Columbia, Washington, DC, USA [21, 22]. Toxicity (LD50: average lethal dose at 50% survival) and anti-inflammatory activity of the studied derivatives were determined according to the procedures reported earlier.

[1] = Solubility in organic solvents (observation); assay type: physicochemical; conditions: for Solubility in DMSO-d6/CDCl3/CD3OD: NMR solvents DMSO-d6/CDCl3/CD3OD
Excerpt: All of the synthesized compounds are obtained as white or cream solid in 65–81% yield and stable towards air and moisture. They are insoluble in common organic solvents but sparingly soluble in DMSO. They decomposed at high temperature instead of melting, which indicates their polymeric nature. […] In the entire studied derivatives one molecule of water is also involved.
The chemical shifts of various magnetically nonequivalent carbons of (5′-GMP)^2− have been assigned in the studied derivatives. The C-5′ resonances in organotin(IV) derivatives of (5′-GMP)^2− are shifted towards downfield upon complexation as compared with that of ligand, which indicate the involvement of phosphate group (PO3)^2− in bonding with tin. While all other carbon shifts remains almost unchanged, the ^13C chemical shifts of alkyl and phenyl groups attached to tin are also observed in the expected regions which are consistent with previously reported values. The characteristic resonances in the ^119Sn NMR spectra of some of the studied derivatives, recorded in dimethylsulfoxide-d 6, are also presented in Table 2. […] The ^119Sn chemical shifts in iso-Pr3Sn(IV), Ph2Sn(IV), and Ph3Sn(IV) derivatives of (5′-GMP)^2− are observed at δ −256, −225, and −226 ppm, which are characteristic of the five-coordinated organotin(IV) derivatives.

albino rats = assay type: in vivo; conditions: p.o.
Excerpt: as §1

| Compound | Anti-inflammatory activity % inhibition (paw edema) (paw edema) [%] | Solubility in DMSO-d6 [1] | Solubility in DMSO-d6/CDCl3/CD3OD [1] | Toxicity LD50 (albino rats) [mg/kg] |
| --- | --- | --- | --- | --- |
| CCCCC1C(=O)N(c2ccccc2)N(c2ccccc2)C1=O [Phenyl butazone, reference compound] | 34.56 | – | – | – |
| [(Me3Sn)2(5′-GMP)·H2O]n | – | poor solubility | extremely low solubility | – |
| [(Ph3Sn)2(5′-GMP)·H2O]n | 20.63 | – | – | >400 |
| [(i-Pr3Sn)2(5′-GMP)·H2O]n | – | – | – | >400 |
| [(n-Bu3Sn)2(5′-GMP)·H2O]n | 17.34 | poor solubility | – | >400 |
| [Me2Sn(5′-GMP)·H2O]n | 18.12 | poor solubility | – | >400 |
| [Ph2Sn(5′-GMP)·H2O]n | 19.22 | – | – | >400 |
| [n-Bu2Sn(5′-GMP)·H2O]n | 16.32 | poor solubility | extremely low solubility | >400 |
